# From patent publication US20050032687A1, “Method and composition for the modulation of angiogenesis” (priority 2001, published 2005)
# Entries after “also recorded” stand apart in the source; their conditions may differ.
# Legend:
# [1] = tested on: bovine aortic endothelial cells (BAEC); test: Cell migration in modified Boyden chamber; format: cell-based; conditions: for cell migration (fluorescence), result in words: BAEC; for cell migration: VEGF-stimulated BAEC (100 ng/ml, 18 hr) with eNOS inhibitor (L-NAME 1 mmol/L, L-NMMA 100 μmol/L)
# Procedure: Fluorescently labeled, BAEC were stimulated with VEGF (100ng/ml) for 18 hr and cell migration was assessed in a modified Boyden Chamber.
# BAEC were fluorescently labeled with calcein AM (Molecular Probes, Inc.) and 0.4×10^3 cells were loaded to the top of a pre-fitted membrane filter that fit a specially designed 96-well microplate. The microplate wells were loaded with serum-free media and VEGF (100 ng/ml) for 18 hr., and cells were allowed to migrate across the membrane. The plate was then analyzed using a fluorescent microplate reader.
# [2] = tested on: bovine aortic endothelial cells (BAEC); test: Cell death by lactate dehydrogenase activity measured in the media; format: cell-based; conditions: DHEA-treated BAEC
# Excerpt: (§1) To examine further the role of G6PD in VEGF-mediated cell proliferation, we next inhibited G6PD activity by exposing BAEC to dehydroepiandrosterone (DHEA) ([…]), a noncompetitive inhibitor of G6PD, for 24 hr.
# [3] = tested on: bovine aortic endothelial cells (BAEC); test: Cellular NADPH levels in BAEC; format: cell-based; conditions: for cellular NADPH levels: VEGF 100 ng/ml
# Excerpt: (§2) To investigate the role of G6PD in vascular endothelial cell proliferation, we initially sought to determine if growth factors involved in angiogenesis, such as vascular endothelial growth factor (VEGF), influenced G6PD activity.
# (§3) We have recently constructed an adenoviral vector incorporating murine G6PD cDNA (93% homologous to the rat cDNA).
# G6PD [4] = test: G6PD activity in BAEC; format: cell-based, bovine; conditions: for G6PD activity: VEGF 100 ng/ml
# Excerpt: as §2, §1
# (§4) As a control, we used a phosphorothioate oligodeoxynucleotide with a scrambled sequence (SS).
# as §3
# [5] = tested on: bovine aortic endothelial cells (BAEC); test: Endothelial cell proliferation by [3H]-thymidine incorporation; format: cell-based
# Procedure: FIGS. 1A and 1B show G6PD and endothelial cell proliferation. BAEC were treated with DHEA to decrease G6PD activity and stimulated with VEGF (100 ng/ml) for 8 hr (1A). Cell proliferation is measured by [^3H]-Thymidine incorporation. G6PD expression was inhibited by trans(in)fection with an antisense oligonucleotide to G6PD mRNA (AS) or a scrambled control (SS) and proliferation was determined by [^3H]-Thymidine incorporation (1B). Results are expressed as counts per minute (cpm) and data presented as mean±SEM. *p<0.01 vs.−VEGF.**p<0.01 vs.−DHEA or −SS.
# as §1, §4, §3
# [6] = tested on: bovine aortic endothelial cells (BAEC); test: Cell-wounding migration assay; format: cell-based; conditions: VEGF 100 ng/ml, serum-free media, 18 hr
# Procedure: FIGS. 3A-D show G6PD and endothelial cell migration.
# We next examined the role of G6PD on VEGF-stimulated endothelial cell migration. In a cell-wounding migration assay, BAEC were grown to confluence on a P100 culture dish. Using a sterile scalpel, a vertical incision was made in the midline of the dish, and under microscopic guidance, BAEC were removed from one-half of the plate. BAEC were then incubated with VEGF (100 ng/ml) in serum-free media, and cell migration across the midline was observed after 18 hr and quantified by the average cell count in 5 high powered fields.
# G6PD [7] = test: G6PD expression by Western analysis in BAEC; format: cell-based, bovine
# Excerpt: as §2, §4, §3
# [8] = tested on: C3H wild-type (WT) and hemizygous male (HEMI) mice; test: In vivo Matrigel plug migration assay; parameters: species or system mouse
# Procedure: To examine the effect of G6PD activity on angiogenesis in vivo, we performed an in vivo Matrigel migration assay in C3H wild-type (WT) and hemizygous male (HEMI) mice. Matrigel, derived from mouse basement membrane proteins, was implanted subcutaneously in the groin area to form a Matrigel “plug”. Each mouse was injected on one side with either Matrigel alone, or Matrigel supplemented with VEGF (100 ng/ml). In this manner, each animal could serve as its own control. Plugs were left in place for 14 days. Following this time, the animals were euthanized, plugs excised with surrounding tissue for orientation, and embedded and sectioned in paraffin. Sections were then stained with Hematoxylin & Eosin (H&E). Images were captured digitally and assessed for cell counts. For orientation purposes, a representative Matrigel plug from a WT mouse at 4× (right) and 20× (left) magnification is shown below (FIG. 9).
# These findings were quantified by counting cells in 10 randomly selected high-power (20×) fields per image in 3 successive images. […] These findings confirm that G6PD modulates angiogenesis in vivo.
# We next wanted to determine if we could “rescue” the G6PD-deficient phenotype using gene transfer to increase local G6PD expression. We treated Matrigel with an adenoviral vector encoding for G6PD implanted plugs in HEMI mice for 7 days in the presence or absence of VEGF (FIG. 13).
# [9] = tested on: bovine aortic endothelial cells (BAEC); test: Endothelial cell tube formation on Matrigel; format: cell-based; conditions: VEGF 100 ng/ml for 12 hr
# Procedure: FIGS. 5A and B show G6PD and Tube Formation. BAEC were transfected with an antisense oligodecocynucleotide to G6PD and mRNA (AS) or a scrambled control (SS) and plated on Matrigel. Cells were then stimulated with VEGF and tube formation was assessed visually (5A) and quantified using area analysis with background substration (5B). Results of area analysis are the average of 10 high-powered fields.
# FIGS. 6A and B show G6PD overexpression and tube formation. G6PD expression was increased via adenoviral-mediated gene transfer. BAEC were then placed on Matrigel and stimulated with VEGF ([…]).
# To examine the role of G6PD in endothelial cell tube formation in vitro, we plated BAEC on Matrigel and stimulated cells with VEGF (100ng/ml) for 12 hr. Results were quantified using NIH Image to determine area of tube formation. Under basal conditions, BAEC plated on Matrigel formed tubes and networks that were increased following exposure to VEGF.
# In order to confirm that G6PD importantly modulates tube formation in vitro, we next increased G6PD expression via adenoviral-mediated gene transfer and examined tube formation.
# [10] = DHEA-treated or AS transfection for 5 hours
molecule,measurement,setting,value
"C[C@]12CC[C@H](O)CC1=CC[C@@H]1[C@@H]2CC[C@]2(C)C(=O)CC[C@@H]12 [DHEA, dehydroepiandrosterone]","cell migration (fluorescence), result in words","[1]; VEGF 100 ng/ml, 18 hr",abrogated; also recorded: VEGF did not significantly increase migration
same,cell death by lactate dehydrogenase activity in the media,[2],not the result of increased cell death
same,decrease in the level of cellular NADPH,[3]; [10],30%
same,reduction in G6PD activity,G6PD [4]; [10],60%
same,[3H]-thymidine incorporation,[5]; basal conditions (DHEA 100 pmol/L for 24 hr; AS or SS transfected),"9,967±1,531 cpm"
same,[3H]-thymidine incorporation,[5]; following stimulation with VEGF 100 ng/ml for 8 hr,"8,902±1,451 cpm"
same,"cell migration across the midline, average cell count",[6],10±2 cells/hpf
COC(=O)[C@@H](N)CCCNC(=N)N[N+](=O)[O-] [L-NAME],cell migration,[1],23.6±17 units
CNC(=N)NCCC[C@H](N)C(=O)O [L-NMMA],cell migration,[1],21.6±7.3 units
VEGF,G6PD expression,G6PD [7],did not increase G6PD expression
same,cell migration as fluorescence,"[1]; BAEC with normal G6PD activity, VEGF 100 ng/ml, 18 hr",55.3±6.6 units
same,"cell migration (fluorescence), result in words","[1]; VEGF 100 ng/ml, 18 hr",significant increase in fluorescence
same,cellular NADPH levels,[3]; 4 hr,0.5±0.04 mmoles/mg protein
same,cellular NADPH levels,[3]; 24 hr,0.4±0.08 mmoles/mg protein
same,G6PD activity,G6PD [4]; 24 hr,87±19 units/6 min/mg protein
same,G6PD activity,G6PD [4]; after 4 hr,182.7±37 units/6 min/mg protein
same,cell migration into the Matrigel plug,"[8]; HEMI mice, 7 days",not increased significantly
same,cell migration into the Matrigel plug,"[8]; HEMI mice, 14 days, Matrigel with VEGF 100 ng/ml",did not significantly improve this response
same,cell migration into the Matrigel plug,"[8]; WT mice, 14 days, Matrigel with VEGF 100 ng/ml",increased the number of cells migrating into the Matrigel plug
same,tube formation / vessel area,[9],increased
same,"cell migration across the midline, average cell count",[6],28±6 cells/hpf
